{"source": "patent US11344630B2", "about": "“Methods and compositions for red-shifted chromophore substitution for optogenetic applications” (Washington University, priority 2014, dated 2022)", "key": {"optogenetic actuators": {"tested_on": "optogenetic actuators", "settings": "replacing retinal with 3,4-didehydroretinal, in vitro; cited from earlier work"}, "[1]": {"molecular_target": "T1, archaerhodopsin proton pump, AR-3 (Halorubrum sodomense, UniProt P96787)", "T1 construct": "host or cells: E. coli", "T1 sequence (P96787 7-258)": "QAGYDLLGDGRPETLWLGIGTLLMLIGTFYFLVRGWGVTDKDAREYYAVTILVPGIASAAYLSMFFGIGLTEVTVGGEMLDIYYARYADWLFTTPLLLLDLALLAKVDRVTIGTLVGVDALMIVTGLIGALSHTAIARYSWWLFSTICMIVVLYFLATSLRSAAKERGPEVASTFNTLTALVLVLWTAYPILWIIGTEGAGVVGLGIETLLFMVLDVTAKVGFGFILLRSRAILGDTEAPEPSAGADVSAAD", "settings": "cited from earlier work; for wavelength of half-maximal absorption on the red slope of the curve: AR-3 expressed in E. coli, chromophore as labelled"}, "[2]": {"test": "Absorbance spectra of retinoid HPLC peaks", "format": "physicochemical", "settings": "predominant retinoid species of zebrafish retina extracts, reduced with sodium borohydride", "description": "(§1) FIG. 1A, FIG. 1B, FIG. 1C, FIG. 1D, FIG. 1E, FIG. 1F, FIG. 1G, FIG. 1H, FIG. 1I, FIG. 1J and FIG. 1K depict images and graphs showing that diverse species employ a vitamin A1 to vitamin A2 switch to red-shift the spectral sensitivity of their photoreceptors. (FIG. 1A) Depicts the conversion of all-trans retinol (vitamin A1) into all-trans 3,4-didehydroretinol (vitamin A2). (FIG. 1B, FIG. 1C, FIG. 1D) Depict several species that switch between the use of vitamin A1 and vitamin A2 for vision at different stages of their life cycle. (FIG. 1B) Sea lamprey; (FIG. 1C) Coho salmon; and (FIG. 1D) Northern leopard frog. (FIG. 1E, FIG. 1F, FIG. 1G, FIG. 1H) depict graphs showing that thyroid hormone treatment of adult zebrafish induces quantitative conversion of retinol into 3,4-didehydroretinol. Adult zebrafish were treated with 300 μg/liter thyroid hormone (L-thyroxine) in their water for three weeks. The retinas were then harvested, and retinoid extracts were reduced with sodium borohydride and analyzed by HPLC. (FIG. 1E) Depicts the position of peak #1 in control zebrafish. (FIG. 1F) Depicts the position of peak #2 in TH-treated zebrafish. […] Note that only vitamin A1 and its derivatives (the retinal form has been reduced to the alcohol form) are detected in the ventral RPE whereas both vitamin A1 and vitamin A2 are present in nearly equal proportions in the dorsal RPE. […]"}, "red single cones": {"tested_on": "red single cones", "test": "Suction electrode recordings of red single cones from wild-type and cyp27c1 mutant fish", "format": "in vivo", "settings": "cyp27c1 mutant zebrafish after thyroid hormone treatment", "description": "FIG. 11A and FIG. 11B depict graphs presenting suction electrode recordings of red single cones from wild-type and Cyp27c1 mutant fish. […] (FIG. 11A) Untreated wild-type and mutant zebrafish have similar sensitivity.\nTo continue to probe the effects of Cyp27c1, we generated cyp27c1 null mutant zebrafish. […] We then utilized the mutant zebrafish to identify their ability to covert retinol (A1) to 3,4-didehydroretinol (A2). […] Suction electrode recordings of red single cones from wild-type and cyp27c1 mutant fish were performed."}, "Cyp27c1 transcript": {"tested_on": "Cyp27c1 transcript", "test": "RNA-seq expression profiling of RPE from thyroid hormone-treated zebrafish vs vehicle-treated controls", "format": "in vivo", "settings": "zebrafish treated 3 weeks with thyroid hormone vs vehicle-treated controls", "description": "FIG. 2A and FIG. 2B depict the results of RNA-seq-based expression profiling of zebrafish and bullfrog retinal pigment epithelium (RPE). (FIG. 2A) RNA-seq results comparing the expression levels of individual transcripts (shown as black circles) from RPE derived from zebrafish treated for 3 weeks with thyroid hormone and vehicle-treated controls. The location of the Cyp27c1 transcript is circled in red. (FIG. 2B) RNA-seq results comparing the expression levels of individual transcripts (shown as black circles) from dorsal and ventral bullfrog RPE. The location of the Cyp27c1 transcript is circled in red.\nIt has long been postulated that the conversion of retinal into 3,4-dehydroretinal in migratory fish is mediated by a ‘terminal ring dehydrogenase’^8. […] To identify the transcript encoding this enzyme, we carried out transcriptome profiling of thyroid hormone-treated fish and compared them to vehicle-treated controls. We hypothesized that the enzyme was likely to be expressed in one of three tissues: retinal pigment epithelium (which lies immediately adjacent to photoreceptors and is a known source of retinoids), retina or liver. We obtained RNA-seq data for RPE and identified an excellent candidate transcript, flj13639. This transcript encodes an ‘orphan’ member of the cytochrome P450 family of monooxygenases, Cyp27c1 (FIG. 2A). […]"}, "adult zebrafish": {"tested_on": "adult zebrafish", "test": "Thyroid hormone treatment of zebrafish, retinoid content of retinas by HPLC", "format": "in vivo", "description": "as §1"}, "Opn1mw4": {"tested_on": "Opn1mw4", "test": "RNA-seq expression profiling of RPE samples from thyroid hormone-treated zebrafish (photoreceptor transcripts)", "format": "in vivo", "settings": "thyroid hormone-treated 'RPE' samples vs controls", "description": "We therefore analyzed a range of photoreceptor gene transcripts in our thyroid hormone-treated ‘RPE’ and controls, and found similar levels of photoreceptor contamination between the two samples."}, "HEK293 cells": {"tested_on": "HEK293 cells", "test": "Cyp27c1 expression in HEK293 cells incubated with retinol, retinoids by HPLC", "format": "cell-based, human", "settings": "transfected HEK293 cells incubated with retinol 24 hours, vs empty vector", "description": "FIG. 5A, FIG. 5B, FIG. 5C, FIG. 5D and FIG. 5E depict the results of introducing an expression construct containing the zebrafish ortholog of Cyp27c1 into HEK293 cells and incubating with retinol for 24 hours (vitamin A1). […] (FIG. 5D, FIG. 5E) depicts the HPLC profile of commercially obtained chemical standards A1 (FIG. 5D) and A2 (FIG. 5E).\nNext, we determined if Cyp27c1 is sufficient to convert retinal to 3,4-didehydroretinal. We cloned a full-length zebrafish Cyp27c1 cDNA and a full-length human Cyp27c1 cDNA into a mammalian expression vector and expressed it in HEK293 cells. FIG. 3 confirms that the recombinant zebrafish and human Cyp27c1 are expressed in the HEK293 cells."}}, "note": "Entries after “also recorded” stand apart in the source; their conditions may differ."}
{"molecule": "CC1=C(/C=C/C(C)=C/C=C/C(C)=C/C=O)C(C)(C)CC=C1", "note": "[3,4-didehydroretinal]", "values": [{"measurement": "red-shift of action spectra", "setting": "optogenetic actuators", "result": "greater than 30 nm"}, {"measurement": "red-shift of wavelength of half-maximal absorption", "setting": "[1]; 3,4-didehydroretinal in place of retinal in AR-3", "result": 40, "unit": "nm"}, {"measurement": "wavelength of half-maximal absorption on the red slope of the curve", "setting": "[1]", "result": 639, "unit": "nm"}]}
{"molecule": "CC1=C(/C=C/C(C)=C/C=C/C(C)=C/CO)C(C)(C)CC=C1", "note": "[3,4-didehydroretinol, all-trans 3,4-didehydroretinol]", "values": [{"measurement": "absorbance maximum (peak)", "setting": "[2]", "result": 355, "unit": "nm"}]}
{"molecule": "CC1=C(/C=C/C(C)=C/C=C/C(C)=C/C=O)C(C)(C)CCC1", "note": "[retinal, all-trans retinal]", "values": [{"measurement": "wavelength of half-maximal absorption on the red slope of the curve", "setting": "[1]", "result": 599, "unit": "nm"}]}
{"molecule": "CC1=C(/C=C/C(C)=C/C=C/C(C)=C/CO)C(C)(C)CCC1", "note": "[retinol, all-trans retinol]", "values": [{"measurement": "absorbance maximum (peak)", "setting": "[2]", "result": 326, "unit": "nm"}]}
{"molecule": "N[C@@H](Cc1cc(I)c(Oc2cc(I)c(O)c(I)c2)c(I)c1)C(=O)O", "note": "[thyroid hormone, L-thyroxine]", "values": [{"measurement": "red-shift of red cone sensitivity", "setting": "red single cones", "result": "fail to red-shift"}, {"measurement": "Cyp27c1 transcript expression level in RPE", "setting": "Cyp27c1 transcript", "result": "markedly upregulated"}, {"measurement": "HPLC profile of retinoids", "setting": "adult zebrafish; thyroid hormone treated cyp27c1 null mutant zebrafish", "result": "only the presence of A1"}, {"measurement": "conversion of retinal into 3,4-dehydroretinal (A1 to A2) in retinas", "setting": "adult zebrafish; wild-type adult zebrafish, 300 μg/liter L-thyroxine in water, three weeks, HPLC", "result": "quantitative conversion of retinal into 3,4-dehydroretinal; also recorded: conversion of A1 to A2"}, {"measurement": "Opn1mw4 transcript upregulation", "setting": "Opn1mw4", "result": 4, "unit": "fold"}]}
{"molecule": "zebrafish Cyp27c1: cytochrome P450, family 27, subfamily C, polypeptide 1 encoded by the cyp27c1 gene from Danio rerio (protein, UniProt A8WGA0 1-540, looked up) Cytochrome P450 27C1: MALQSTILHMARKNLLQESCRQLLIQTHGLHKSVASGSLEIAAHSQADLKEESAVSPAEEVQKAARVKSLKEMPGPSTVANLLEFFYRDGFSRIHEIQMEHAKKYGKIFKSRFGPQFVVSIADRDMVAQVLRSESATPQRGNMESWKEYRDLRGRSTGLISAEGDEWLKMRSVLRQLIMRPRDVAVFSSDVNDVVADLVKRVKTLRSQQDDSQTVLNINDLFFKYAMEGVATILYETRLGCLENEIPKMSQEYITALHLMFSSFKTTMYAGAIPKWLRPIIPKPWEEFCSSWDGLFKFSQIHVDKRLSEIKKQMEKSEEIKGGLLTHMLVTREMNLEEIYANMTEMLLAGVDTTSFTLSWSTYLLARHPTIQQQIFEEVDRVLGGRVPTGEDVPYLPLIRGLVKETLRLFPVLPGNGRVTHDDLIVGGYLIPKGTQLALCHYSTSMDEENFPRPEEFRPDRWIRKDASDRVDNFGSIPFGYGIRSCIGRRIAELEMHLALTQLLQNFHIEVSPQTTEVHAKTHGLLCPGASINLRFTDRK", "values": [{"measurement": "formation of 3,4-didehydroretinol (A2) from retinol", "setting": "HEK293 cells", "result": "significant quantities of 3,4-didehydroretinol"}]}
{"molecule": "human Cyp27c1: cytochrome P450, family 27, subfamily C, polypeptide 1 encoded by the cyp27c1 gene from Homo sapiens (protein, UniProt Q4G0S4 81-542, looked up) Cytochrome P450 27C1: ANLAEFFCRDGFSRIHEIQQKHTREYGKIFKSHFGPQFVVSIADRDMVAQVLRAEGAAPQRANMESWREYRDLRGRATGLISAEGEQWLKMRSVLRQRILKPKDVAIYSGEVNQVIADLIKRIYLLRSQAEDGETVTNVNDLFFKYSMEGVATILYESRLGCLENSIPQLTVEYIEALELMFSMFKTSMYAGAIPRWLRPFIPKPWREFCRSWDGLFKFSQIHVDNKLRDIQYQMDRGRRVSGGLLTYLFLSQALTLQEIYANVTEMLLAGVDTTSFTLSWTVYLLARHPEVQQTVYREIVKNLGERHVPTAADVPKVPLVRALLKETLRLFPVLPGNGRVTQEDLVIGGYLIPKGTQLALCHYATSYQDENFPRAKEFRPERWLRKGDLDRVDNFGSIPFGHGVRSCIGRRIAELEIHLVVIQLLQHFEIKTSSQTNAVHAKTHGLLTPGGPIHVRFVNRK", "values": [{"measurement": "formation of 3,4-didehydroretinol (A2) from retinol", "setting": "HEK293 cells", "result": "significant quantities of 3,4-didehydroretinol"}]}
